Experimental data as given in the Kinase Knowledgebase extract (Sharma et al. 2016).
pIC50: −log10 of the molar value.

Target: MAPK14 (human) (UniProt Q16539)
Experiment: Inhibition of MAPK14 by Human Whole Blood Assay
Settings: blood cells

Chain of MAPK14 (human) (Q16539 whole entry, looked up): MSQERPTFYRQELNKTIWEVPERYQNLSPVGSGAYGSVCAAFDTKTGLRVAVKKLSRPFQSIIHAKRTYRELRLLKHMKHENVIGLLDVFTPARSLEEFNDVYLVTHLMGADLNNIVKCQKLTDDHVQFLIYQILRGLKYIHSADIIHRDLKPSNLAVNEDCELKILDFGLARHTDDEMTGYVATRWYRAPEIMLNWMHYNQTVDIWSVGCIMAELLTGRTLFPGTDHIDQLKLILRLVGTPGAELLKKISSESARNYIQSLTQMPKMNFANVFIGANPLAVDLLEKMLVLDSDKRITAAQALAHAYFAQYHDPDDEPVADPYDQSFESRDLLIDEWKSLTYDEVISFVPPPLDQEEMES

SMILES | pIC50
CCN(C(=O)c1ccc2occc2c1)c1ccnc(N[C@@H](C)c2ccccc2)n1 | > 6.00
CC(C)(C)CNc1nccc(N(CC2CCNCC2)C(=O)c2ccc3c(c2)CCO3)n1 | > 6.00
CC(C)Nc1nccc(N(CC2CC2)C(=O)c2ccc3ccccc3c2)n1 | > 6.00
C[C@H](Nc1nccc(N(C)C(=O)c2ccc3ccccc3c2)n1)c1ccccc1 | ≥ 6.00
COCCN(C(=O)c1ccc2ccccc2c1)c1ccnc(NC(C)C)n1 | ≥ 6.00
C[C@H](Nc1cc(N(C)C(=O)N2CCc3ccccc3C2)ccn1)c1ccccc1 | ≥ 6.00
CCC(C)Nc1nccc(N(CC2CCNCC2)C(=O)c2ccc3c(c2)CCO3)n1 (stereo unspecified) | > 6.00
CCN(C(=O)c1ccc2snnc2c1)c1ccnc(N[C@@H](C)c2ccccc2)n1 | ≥ 6.00
CCN(C(=O)c1cccc(C)c1C)c1ccnc(N[C@@H](C)c2ccccc2)n1 | > 6.00
CCN(C(=O)c1cccc(C(Cl)Cl)c1)c1ccnc(N[C@@H](C)c2ccccc2)n1 | > 6.00
CC(C)N(C(=O)c1ccc2ccccc2c1)c1ccnc(N[C@@H](C)c2ccccc2)n1 | ≥ 6.00
O=C(c1ccc2ccccc2c1)N(Cc1ccc(F)cc1)c1ccnc(NC(c2ccccc2)c2ccccc2)c1 | ≥ 6.00
C[C@H](Nc1nccc(N(CC2CCNCC2)C(=O)c2ccc3c(c2)CCO3)n1)c1ccccc1 | > 6.00
NCCCCN(C(=O)c1ccc2c(c1)CCO2)c1ccnc(NC2CCC(O)CC2)n1 (stereo unspecified) | > 6.00
CNc1nccc(N(CC2CCNCC2)C(=O)c2ccc3ccccc3c2)n1 | > 6.00
O=C(c1ccc2ccccc2c1)N(CC1CC1)c1ccnc(NC2CCC(O)CC2)n1 (stereo unspecified) | > 6.00
O=C(c1ccc2ccccc2c1)N(CC1CCNCC1)c1ccnc(NC2CCOCC2)n1 | > 6.00
C[C@H](Nc1nccc(N(CC2CCN(C(N)=O)CC2)C(=O)c2ccc3c(c2)CCO3)n1)c1ccccc1 | > 6.00
CCN(C(=O)c1ccc2ccccc2c1)c1ccnc(NC2CCNCC2)n1 | ≥ 6.00
COCCNc1nccc(N(CC2CCNCC2)C(=O)c2ccc3c(c2)CCO3)n1 | > 6.00
CC(Nc1cc(N(Cc2ccc(F)cc2)C(=O)c2ccc3ccccc3c2)ccn1)c1ccc(Cl)cc1 (stereo unspecified) | ≥ 6.00
CCN(C(=O)c1cccc(Cl)c1C)c1ccnc(N[C@@H](C)c2ccccc2)n1 | > 6.00
CCN(C(=O)c1cc(C)ccc1F)c1ccnc(N[C@@H](C)c2ccccc2)n1 | > 6.00
O=C(c1ccc2c(c1)CCO2)N(CC1CCNCC1)c1ccnc(NC2CC2)n1 | > 6.00

SMILES | pIC50
C[C@H](Nc1nccc(N(C(=O)c2ccc3ccccc3c2)C2CC(C)(C)NC(C)(C)C2)n1)c1ccccc1 | > 6.00
O=C(c1ccc2ccccc2c1)N(Cc1ccc(F)cc1)c1ccnc(N[C@H]2CCCc3ccccc32)c1 | ≥ 6.00
CC(C)C(C)Nc1nccc(N(CC2CCNCC2)C(=O)c2ccc3c(c2)CCO3)n1 (stereo unspecified) | > 6.00
O=C(c1ccc2ccccc2c1)N(Cc1ccc(F)cc1)c1ccnc(NCc2ccccc2)c1 | ≥ 6.00
C[C@H](Nc1cc(N(Cc2ccc(F)cc2)C(=O)c2ccccc2)ccn1)c1ccccc1 | ≥ 6.00
C[C@H](Nc1cc(N(Cc2ccc(F)cc2)C(=O)c2cccs2)ccn1)c1ccccc1 | ≥ 6.00
CCN(C(=O)c1ccc2c(c1)CCO2)c1ccnc(N[C@@H](C)c2ccccc2)n1 | ≥ 6.00
C[C@H](Nc1nccc(N(Cc2cccnc2)C(=O)c2ccc3ccccc3c2)n1)c1ccccc1 | ≥ 6.00
C[C@H](Nc1nccc(N(CC2CCNC2)C(=O)c2ccc3c(c2)CCO3)n1)c1ccccc1 (stereo partly specified) | > 6.00
COCCN(C(=O)c1ccc2ccccc2c1)c1ccnc(N[C@@H](C)c2ccccc2)n1 | ≥ 6.00
CC(=O)N(Cc1ccc(F)cc1)c1ccnc(N[C@@H](C)c2ccccc2)c1 | ≥ 6.00
CC(C)Nc1nccc(N(C)C(=O)c2ccc3ccccc3c2)n1 | ≥ 6.00
CCN(C(=O)c1ccc2ccccc2c1)c1ccnc(N[C@@H](C)c2ccccc2)n1 | ≥ 6.00
CCN(C(=O)c1cccc2c1OCCO2)c1ccnc(N[C@@H](C)c2ccccc2)n1 | > 6.00
O=C(c1ccc2ccccc2c1)N(Cc1ccc(F)cc1)c1ccnc(NC2CCCCC2)c1 | ≥ 6.00
C[C@H](Nc1cc(N(Cc2ccccc2)C(=O)c2ccc3ccccc3c2)ccn1)c1ccccc1 | ≥ 6.00
CCC(COC)Nc1nccc(N(CC2CCNCC2)C(=O)c2ccc3c(c2)CCO3)n1 (stereo unspecified) | > 6.00
COCCCN(C(=O)c1ccc2ccccc2c1)c1ccnc(N[C@@H](C)c2ccccc2)n1 | > 6.00
CCCN(C(=O)c1ccc2ccccc2c1)c1ccnc(NC(C)C)n1 | ≥ 6.00
CCc1cccc(C(=O)N(CC)c2ccnc(N[C@@H](C)c3ccccc3)n2)c1 | > 6.00
CC(C)Nc1nccc(N(CCCCCN)C(=O)c2ccc3c(c2)CCO3)n1 | > 6.00
O=C(c1ccc2c(c1)CCO2)N(CC1CCNCC1)c1ccnc(NC2CCC[C@@H]2O)n1 (stereo partly specified) | > 6.00
C[C@H](Nc1nccc(N(CC2CCNCC2)C(=O)c2cccc3ccccc23)n1)c1ccccc1 | > 6.00
C[C@H](Nc1nccc(N(CC2CCNCC2)C(=O)c2sc3ccccc3c2Cl)n1)c1ccccc1 | > 6.00

SMILES | pIC50
O=C(c1ccc2ccccc2c1)N(Cc1ccc(F)cc1)c1ccnc(NC2CCN(Cc3ccccc3)CC2)c1 | ≥ 6.00
CC(C)Nc1nccc(N(Cc2ccc(F)cc2)C(=O)c2ccc3ccccc3c2)n1 | ≥ 6.00
C[C@H](Nc1cc(N(Cc2ccc(F)cc2)S(=O)(=O)c2ccc3ccccc3c2)ccn1)c1ccccc1 | ≥ 6.00
C[C@H](Nc1nccc(N(CC2CCN(C3CCCC3)CC2)C(=O)c2ccc3c(c2)CCO3)n1)c1ccccc1 | > 6.00
CC1CCCCC1Nc1nccc(N(CC2CCNCC2)C(=O)c2ccc3c(c2)CCO3)n1 (stereo unspecified) | > 6.00
COCCCNc1nccc(N(CC2CCNCC2)C(=O)c2ccc3c(c2)CCO3)n1 | > 6.00
O=C(c1ccc2ccccc2c1)N(Cc1ccc(F)cc1)c1ccnc(NCCN2CCOCC2)c1 | ≥ 6.00
C[C@H](Nc1nccc(N(CC2CCNCC2)C(=O)c2ccc3c(c2)CCC3)n1)c1ccccc1 | > 6.00
CCN(C(=O)c1cccc(C)c1)c1ccnc(N[C@@H](C)c2ccccc2)n1 | > 6.00
C[C@H](Nc1nccc(N(CC2CCNCC2)C(=O)c2ccc3c(c2)CCCC3)n1)c1ccccc1 | > 6.00
CCC(Nc1cc(N(Cc2ccc(F)cc2)C(=O)c2ccc3ccccc3c2)ccn1)c1ccccc1 (stereo unspecified) | ≥ 6.00
CC(Nc1cc(N(Cc2ccc(F)cc2)C(=O)c2ccc3ccccc3c2)ccn1)c1ccc(F)cc1 (stereo unspecified) | ≥ 6.00
CCN(C(=O)c1scc2c1CCCC2)c1ccnc(N[C@@H](C)c2ccccc2)n1 | > 6.00
CCN(C(=O)c1ccc2ccccc2c1)c1ccnc(NC2CCC(N)CC2)n1 (stereo unspecified) | > 6.00
COc1ccc([C@H](C)Nc2cc(N(Cc3ccc(F)cc3)C(=O)c3ccc4ccccc4c3)ccn2)cc1 | ≥ 6.00
CC(C)Nc1nccc(N(CCCCN2CCCC2)C(=O)c2ccc3c(c2)CCO3)n1 | > 6.00
C[C@H](Nc1nccc(N(CC2CC2)C(=O)c2ccc3ccccc3c2)n1)c1ccccc1 | > 6.00
O=C(c1ccc2ccccc2c1)N(Cc1ccc(F)cc1)c1ccnc(N[C@H]2CCc3ccccc32)c1 | ≥ 6.00
CC(C)Nc1nccc(N(C(=O)c2ccc3ccccc3c2)C(C)C)n1 | ≥ 6.00
COCCN(C(=O)c1cccc(C)c1C)c1ccnc(N[C@@H](C)c2ccccc2)n1 | > 6.00
Nc1cc(N(Cc2ccc(F)cc2)C(=O)c2ccc3ccccc3c2)ccn1 | ≥ 6.00
CCN(C(=O)c1cccc(C2CC2)c1)c1ccnc(N[C@@H](C)c2ccccc2)n1 | > 6.00
CCN(C(=O)c1ccc2c(c1)CCC2)c1ccnc(N[C@@H](C)c2ccccc2)n1 | > 6.00
COCC(C)Nc1nccc(N(CCCCN)C(=O)c2ccc3c(c2)CCO3)n1 (stereo unspecified) | > 6.00

SMILES | pIC50
CC(C)Nc1nccc(N(CCC[C@@H](N)C(=O)N(C)C)C(=O)c2ccc3c(c2)CCO3)n1 | > 6.00
C[C@H](Nc1nccc(N(CC2CC2)C(=O)c2ccc3c(c2)CCO3)n1)c1ccccc1 | > 6.00
C[C@H](Nc1nccc(N(Cc2ccc(F)cc2)C(=O)c2ccc3ccccc3c2)n1)c1ccccc1 | ≥ 6.00
C[C@H](Nc1nccc(N(Cc2ccc(S(C)(=O)=O)cc2)C(=O)c2ccc3ccccc3c2)n1)c1ccccc1 | ≥ 6.00
COCCN(C(=O)c1ccc2c(c1)CCC2)c1ccnc(N[C@@H](C)c2ccccc2)n1 | > 6.00
CCN(C(=O)c1cccc(Cl)c1)c1ccnc(N[C@@H](C)c2ccccc2)n1 | > 6.00
CC(C)Nc1nccc(N(CC2CCNCC2)C(=O)c2ccc3c(c2)CCO3)n1 | > 6.00
C[C@@H](Nc1cc(N(Cc2ccc(F)cc2)C(=O)c2ccc3ccccc3c2)ccn1)c1ccccc1 | ≥ 6.00
C[C@H](Nc1cc(N(Cc2ccc(F)cc2)C(=O)c2ccc3ccccc3c2)ccn1)c1ccc2ccccc2c1 | ≥ 6.00
CC(C)Nc1nccc(N(CC2CC[C@H](N)C2)C(=O)c2ccc3c(c2)CCO3)n1 (stereo partly specified) | > 6.00
C[C@H](Nc1nccc(N(C(=O)c2ccc3ccccc3c2)C2CCNCC2)n1)c1ccccc1 | ≥ 6.00
COC(=O)c1ccc(CNc2cc(N(Cc3ccc(F)cc3)C(=O)c3ccc4ccccc4c3)ccn2)cc1 | ≥ 6.00
COC(=O)CN1CCC(CN(C(=O)c2ccc3c(c2)CCO3)c2ccnc(NC(C)C)n2)CC1 | > 6.00
O=C(c1ccc2c(c1)CCO2)N(CC1CCNCC1)c1ccnc(NC2CCCC2)n1 | > 6.00
CC(C)Nc1nccc(N(CCCCN)C(=O)c2ccc3c(c2)CCO3)n1 | > 6.00
O=C(c1ccc2c(c1)CCC2)N(CC1CC1)c1ccnc(NC2CCC(O)CC2)n1 (stereo unspecified) | > 6.00
C[C@H](Nc1nccc(N(CCCCN)C(=O)c2ccc3c(c2)CCO3)n1)c1ccccc1 | > 6.00
CCN(C(=O)c1ccc2nccnc2c1)c1ccnc(N[C@@H](C)c2ccccc2)n1 | ≥ 6.00
CCN(C(=O)c1cccc2c1OCC2)c1ccnc(N[C@@H](C)c2ccccc2)n1 | > 6.00
C[C@H](Nc1cc(N(Cc2ccc(F)cc2)C(=O)c2ccc3ccccc3c2)ncn1)c1ccccc1 | ≥ 6.00
C[C@H](Nc1nccc(N(C(=O)c2ccc3ccccc3c2)C2CCN(C(=O)OC(C)(C)C)CC2)n1)c1ccccc1 | > 6.00
CC(C)Nc1cc(N(Cc2ccc(F)cc2)C(=O)c2ccc3ccccc3c2)ccn1 | ≥ 6.00
CCCN(C(=O)c1ccc2ccccc2c1)c1ccnc(N[C@@H](C)c2ccccc2)n1 | ≥ 6.00
C[C@H](Nc1nccc(N(CC2CCNCC2)C(=O)c2ccc3ccccc3c2)n1)c1ccccc1 | > 6.00
